The record followed here is PubChem BioAssay AID2060626 (Molecular Pharmacology Branch, DTP, NCI, 2025).

A word on the IC50: it is the concentration that gives 50% inhibition. What is called viability, T/C is the ratio of treated to control.

The test system of this experiment is 168753-222-R-J1-PDC complex spheroid viability. Kind of experiment: Anticancer human tumor 168753-222-R-J1-PDC patient-derived bladder carcinoma cell line growth inhibition [CLK]. The note with it: for viability, T/C: stronger effect = lower value. A digest of the protocol:
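Patient-derived tumor cells grown as complex spheroids with HUVEC endothelial cells and mesenchymal stem cells, treated with drug combinations. Concentrations descend in half-log steps from near clinical Cmax, or from 10 microM if Cmax unknown.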

The mark [1] stands for this setting: curve of first compound, second compound 0.0316 µM.
The mark [2] stands for this setting: curve of first compound, second compound 0.1 µM.
The mark [3] stands for this setting: curve of first compound, second compound 0.316 µM.
Where [4] appears, read: curve of first compound, second compound 1 µM.
[5] abbreviates: curve of first compound, second compound 3.16 µM.
Where [6] appears, read: curve of first compound, second compound 10 µM.

Several values for one entry are separate records, joined by “and”; a condition that tells them apart may be missing. Identical values can stand only once.
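Note: viability measured after seven days of drug exposure.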
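Throughout, for viability, T/C: luminescence signal used as surrogate for viable cell amount; 100% = DMSO vehicle control wells.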

With `CCCS(=O)(=O)Nc1ccc(F)c(C(=O)c2c[nH]c3ncc(-c4ccc(Cl)cc4)cc23)c1F` + CNC(=O)c1ccc(Nc2nc(OC3CCCC3)c3c(-c4ccc5nc(C)oc5c4)c[nH]c3n2)c(OC)c1, the IC50 runs as follows: under setting [1], greater than 10000 nM; under setting [2], greater than 10000 nM; under setting [3], 9850 nM; under setting [4], 3860 nM; under setting [5], less than 31.6 nM; under setting [6], less than 31.6 nM. In addition, the viability, T/C is 109% (second compound 0.0316 µM, first compound 0.0316 µM); 105% (second compound 0.0316 µM, first compound 0.1 µM); 113% (second compound 0.0316 µM, first compound 0.316 µM); 116% (second compound 0.0316 µM, first compound 1 µM); 105% (second compound 0.0316 µM, first compound 3.16 µM); 68.1% (second compound 0.0316 µM, first compound 10 µM). Further, the viability, T/C runs as follows: (second compound 0.1 µM, first compound 0.0316 µM) 91.6%; (second compound 0.1 µM, first compound 0.1 µM) 103%; (second compound 0.1 µM, first compound 0.316 µM) 105%; (second compound 0.1 µM, first compound 1 µM) 106%; (second compound 0.1 µM, first compound 3.16 µM) 103%; (second compound 0.1 µM, first compound 10 µM) 66.2%. In addition, the viability, T/C (second compound 0.316 µM, first compound 0.0316 µM) was 92.3%; the viability, T/C (second compound 0.316 µM, first compound 0.1 µM) was 98.7%; the viability, T/C (second compound 0.316 µM, first compound 0.316 µM) was 93.1%; the viability, T/C (second compound 0.316 µM, first compound 1 µM) was 104%; the viability, T/C (second compound 0.316 µM, first compound 3.16 µM) is 101%; the viability, T/C (second compound 0.316 µM, first compound 10 µM) is 49.3%. For the same compound, the viability, T/C was 53.7% (second compound 1 µM, first compound 0.0316 µM); 50.7% (second compound 1 µM, first compound 0.1 µM); 46.9% (second compound 1 µM, first compound 0.316 µM); 57.2% (second compound 1 µM, first compound 1 µM); 64% (second compound 1 µM, first compound 3.16 µM); 28.6% (second compound 1 µM, first compound 10 µM). For the same compound, the viability, T/C is, setting by setting: (second compound 3.16 µM, first compound 0.0316 µM) 25.1%; (second compound 3.16 µM, first compound 0.1 µM) 33.7%; (second compound 3.16 µM, first compound 0.316 µM) 34.4%; (second compound 3.16 µM, first compound 1 µM) 30.1%; (second compound 3.16 µM, first compound 3.16 µM) 29.6%; (second compound 3.16 µM, first compound 10 µM) 26.1%. In addition, the viability, T/C (second compound 10 µM, first compound 0.0316 µM) is 20%; the viability, T/C (second compound 10 µM, first compound 0.1 µM) was 31.2%; the viability, T/C (second compound 10 µM, first compound 0.316 µM) was 29.7%; the viability, T/C (second compound 10 µM, first compound 1 µM) is 20.1%; the viability, T/C (second compound 10 µM, first compound 3.16 µM) is 27.8%; the viability, T/C (second compound 10 µM, first compound 10 µM) was 24%.

Regarding `NC(=O)C(=Cn1cnc(-c2cc(C(F)(F)F)cc(C(F)(F)F)c2)n1)c1cncnc1` + CN1CCN(c2cc(C(=O)Nc3cc4cc(-c5cnn(C)c5)ccc4cn3)ccn2)CC1, the IC50 was 56.2 nM under setting [1]; 13.6 nM under setting [2]; less than 9.49 nM under setting [3]; less than 9.49 nM under setting [4]; less than 9.49 nM under setting [5]; less than 9.49 nM under setting [6]. The viability, T/C was 75.6% (second compound 0.0316 µM, first compound 0.00949 µM); 72.3% (second compound 0.0316 µM, first compound 0.03 µM); 31.5% (second compound 0.0316 µM, first compound 0.0949 µM); 22.6% (second compound 0.0316 µM, first compound 0.3 µM); 15% (second compound 0.0316 µM, first compound 0.949 µM); 12.9% (second compound 0.0316 µM, first compound 3 µM). Further, the viability, T/C is 61.4% (second compound 0.1 µM, first compound 0.00949 µM); 25.2% (second compound 0.1 µM, first compound 0.03 µM); 10.8% (second compound 0.1 µM, first compound 0.0949 µM); 10.9% (second compound 0.1 µM, first compound 0.3 µM); 5.67% (second compound 0.1 µM, first compound 0.949 µM); 3.14% (second compound 0.1 µM, first compound 3 µM). For the same compound, the viability, T/C (second compound 0.316 µM, first compound 0.00949 µM) is 6.93%; the viability, T/C (second compound 0.316 µM, first compound 0.03 µM) was 4.81%; the viability, T/C (second compound 0.316 µM, first compound 0.0949 µM) is 0.76%; the viability, T/C (second compound 0.316 µM, first compound 0.3 µM) was 0.08%; the viability, T/C (second compound 0.316 µM, first compound 0.949 µM) was 0.11%; the viability, T/C (second compound 0.316 µM, first compound 3 µM) is 0.75%. In addition, the viability, T/C is, setting by setting: (second compound 1 µM, first compound 0.00949 µM) 0.09%; (second compound 1 µM, first compound 0.03 µM) 0.15%; (second compound 1 µM, first compound 0.0949 µM) 0.1%; (second compound 1 µM, first compound 0.3 µM) 0.05%; (second compound 1 µM, first compound 0.949 µM) 0.06%; (second compound 1 µM, first compound 3 µM) 0.72%. Moreover, the viability, T/C runs as follows: (second compound 3.16 µM, first compound 0.00949 µM) 0.06%; (second compound 3.16 µM, first compound 0.03 µM) 0.22%; (second compound 3.16 µM, first compound 0.0949 µM) 0.75%; (second compound 3.16 µM, first compound 0.3 µM) 0.08%; (second compound 3.16 µM, first compound 0.949 µM) 0.69%; (second compound 3.16 µM, first compound 3 µM) 0.12%. For the same compound, the viability, T/C was 0.87% (second compound 10 µM, first compound 0.00949 µM); 0.14% (second compound 10 µM, first compound 0.03 µM); 0.3% (second compound 10 µM, first compound 0.0949 µM); 0.13% (second compound 10 µM, first compound 0.3 µM); 0.22% (second compound 10 µM, first compound 0.949 µM); 0.56% (second compound 10 µM, first compound 3 µM).

For the compound `O=c1[nH]cc(F)c(=O)[nH]1`, the viability, T/C by setting is: (compound 0.0316 µM) 93.5% and 101%; (compound 0.1 µM) 102% and 107%; (compound 0.316 µM) 88% and 104%; (compound 1 µM) 109% and 112%; (compound 3.16 µM) 67.9% and 113%; (compound 10 µM) 53.5% and 93.2%. For the same compound, the IC50 (curve of compound) is greater than 10000 nM.

On to `CC1COCCN1c1cc(C2(S(C)(=N)=O)CC2)nc(-c2ccnc3[nH]ccc23)n1` (stereo not drawn), for which the viability, T/C is, setting by setting: (compound 0.0316 µM) 93.5% and 106%; (compound 0.1 µM) 67% and 101%; (compound 0.316 µM) 84.1% and 104%; (compound 1 µM) 75.9% and 102%; (compound 3.16 µM) 49.7% and 87.8%; (compound 10 µM) 26.7% and 56.4%. Moreover, the IC50 (curve of compound) is 3110 nM and > 10000 nM.

For `C=CC(=O)N1CCN(c2nc(=O)n(-c3c(C)ccnc3C(C)C)c3nc(-c4c(O)cccc4F)c(F)cc23)C(C)C1` (stereo not drawn), the viability, T/C (compound 0.0316 µM) was 91% and 86.6%; the viability, T/C (compound 0.1 µM) was 111% and 92.8%; the viability, T/C (compound 0.316 µM) was 101% and 92.3%; the viability, T/C (compound 1 µM) was 110% and 103%; the viability, T/C (compound 3.16 µM) was 106% and 121%; the viability, T/C (compound 10 µM) was 103% and 74.9%. Moreover, where the note is “curve of compound”, the IC50 is greater than 10000 nM.

Consider `CCN1CCN(Cc2ccc(Nc3ncc(F)c(-c4cc(F)c5nc(C)n(C(C)C)c5c4)n3)nc2)CC1`, for which the viability, T/C reads like this: (compound 0.00316 µM) 97.4% and 95.4%; (compound 0.01 µM) 80.3% and 94%; (compound 0.0316 µM) 37.7% and 78.4%; (compound 0.1 µM) 44.1% and 77.1%; (compound 0.316 µM) 25.1% and 68.1%; (compound 1 µM) 36.4% and 64.2%.

For `CN1CCN(c2cc(C(=O)Nc3cc4cc(-c5cnn(C)c5)ccc4cn3)ccn2)CC1`, the viability, T/C was 10.2% [middle of 12 runs] (compound 0.316 µM), 1.32% [middle of 11 runs] (compound 1 µM), 0.5% [middle of 11 runs] (compound 3.16 µM) and 0.32% [middle of 10 runs] (compound 10 µM). Also, where the note is “compound alone, run of 07/31/2023”, the IC50 is 102 nM [middle of 12 runs].

For the compound `Cn1ncnc1[C@H]1c2n[nH]c(=O)c3cc(F)cc(c23)N[C@@H]1c1ccc(F)cc1`, the viability, T/C reads like this: (compound 0.000316 µM) 82.2% and 103%; (compound 0.001 µM) 97% and 99.6%; (compound 0.00316 µM) 70% and 106%; (compound 0.01 µM) 87.6% and 108%; (compound 0.0316 µM) 74.9% and 108%; (compound 0.1 µM) 55.2% and 91.6%. The IC50 (curve of compound) was greater than 100 nM.
